Laboratory results as given in US8945518B2, “Formulation of dual eicosanoid system and cytokine system inhibitors for use in the prevention and treatment of oral diseases and conditions” (Unigen, Inc., priority 2002, dated 2015).

Columns and labels:
[1] = tested on: COX-1 and COX-2 enzymes; settings: cited from earlier work
[2] = molecular target: T1, recombinant ovine COX-2 (Ovis aries, UniProt P79208); assay: COX-2 peroxidase activity inhibition (TMPD, 96-well); type: biochemical; settings: IC50 normalized to enzyme units
T1 sequence (P79208 17-603): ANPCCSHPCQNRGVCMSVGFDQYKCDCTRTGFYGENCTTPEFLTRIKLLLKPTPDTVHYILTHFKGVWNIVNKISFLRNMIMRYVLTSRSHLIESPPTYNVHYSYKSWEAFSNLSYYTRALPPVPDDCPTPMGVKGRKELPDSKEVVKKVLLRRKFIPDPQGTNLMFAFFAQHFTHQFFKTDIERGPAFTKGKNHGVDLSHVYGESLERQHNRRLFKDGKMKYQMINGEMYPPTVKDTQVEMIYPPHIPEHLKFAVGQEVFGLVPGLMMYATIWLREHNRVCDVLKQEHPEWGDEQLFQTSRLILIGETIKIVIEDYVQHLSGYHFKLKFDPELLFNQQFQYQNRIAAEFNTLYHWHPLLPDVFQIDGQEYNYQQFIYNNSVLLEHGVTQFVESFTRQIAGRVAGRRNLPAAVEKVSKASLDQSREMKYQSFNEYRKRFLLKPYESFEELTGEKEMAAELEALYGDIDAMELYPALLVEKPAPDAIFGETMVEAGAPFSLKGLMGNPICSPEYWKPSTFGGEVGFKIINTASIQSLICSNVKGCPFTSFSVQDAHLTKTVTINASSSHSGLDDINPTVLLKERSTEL
Description: (§1) In order to screen for compounds that inhibited the COX-1 and COX-2 activities, a high throughput, in vitro assay was developed that utilized the inhibition of the peroxidase activity of both enzymes. […] Briefly, the composition or compound being examined was titrated against a fixed amount of COX-1 and COX-2 enzymes. A cleavable, peroxide chromophore was included in the assay to visualize the peroxidase activity of each enzyme in presence of arachidonic acid as a cofactor. Typically, assays were performed in a 96-well format. Each inhibitor, taken from a 10 mg/mL stock solution in 100% DMSO, was tested in triplicate at room temperature using the following range of concentrations: 0, 0.1, 1, 5, 10, 20, 50, 100, and 500 μg/mL. […] The components were mixed for 10 seconds on a rotating platform, followed by the addition of 20 μL of 2 mM N,N,N′N′-tetramethyl-p-phenylenediamine dihydrochloride (TMPD) and 20 μL of 1.1 mM arachidonic acid to initiate the reaction. The plate was shaken for 10 seconds and then incubated 5 minutes before reading the absorbance at 570 nm. The inhibitor concentration vs. % inhibition was plotted and the IC50 determined by taking the half-maximal point along the isotherm and intersecting the concentration on the X-axis. The IC50 was then normalized to the number of enzyme units in the assay.

[3] = molecular target: T2, recombinant ovine COX-1 (Ovis aries, UniProt P05979); assay: COX-1 peroxidase activity inhibition (TMPD, 96-well); type: biochemical
T2 sequence (P05979 25-600): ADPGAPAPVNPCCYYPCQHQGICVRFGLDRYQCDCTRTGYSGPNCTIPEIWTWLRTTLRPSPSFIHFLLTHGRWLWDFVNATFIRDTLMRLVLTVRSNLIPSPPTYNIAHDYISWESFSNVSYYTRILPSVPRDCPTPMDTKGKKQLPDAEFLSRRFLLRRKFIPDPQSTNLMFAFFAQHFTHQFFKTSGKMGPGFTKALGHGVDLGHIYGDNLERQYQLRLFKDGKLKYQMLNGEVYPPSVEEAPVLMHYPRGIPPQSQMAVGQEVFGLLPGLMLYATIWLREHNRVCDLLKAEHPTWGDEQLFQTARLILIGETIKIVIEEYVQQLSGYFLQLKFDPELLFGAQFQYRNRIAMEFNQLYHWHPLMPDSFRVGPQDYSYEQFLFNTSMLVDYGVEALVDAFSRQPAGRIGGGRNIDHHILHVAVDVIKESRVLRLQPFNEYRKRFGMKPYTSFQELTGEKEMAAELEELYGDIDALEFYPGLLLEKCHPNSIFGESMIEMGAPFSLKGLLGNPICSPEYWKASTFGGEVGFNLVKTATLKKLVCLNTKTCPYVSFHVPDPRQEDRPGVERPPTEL
Description: as §1

[4] = tested on: newly synthesized LTB4 (5-LOX pathway) in HT-29 cells; assay: LTB4 competitive ELISA in HT-29 cells; type: cell-based; settings: Homo sapiens, 3 μg/mL, 48 hrs
Protocol: A competitive ELISA for Leukotriene B4 (LTB4; Neogen, Inc., Cat#406110) was used to assess the effect of this UP676 formulation on newly synthesized levels of LTB4 present in each cell line as a measure UP676's inhibitory effect on the 5-LOX pathway. The assay was performed in duplicate by adding 160,000 to 180,000 cells per well in 6-well plates. […] Each treated cell line was then harvested by centrifugation and disrupted by gentle dounce homogenization lysis in physiological buffers.

[5] = literature studies of bioavailability; cited from earlier work
[6] = Stability of catechin in solution; type: physicochemical
Protocol: A total of 6 different conditions (not including control solution) were chosen for this stability investigation at 45° C. Aqueous K2HPO4 (0.5 M) or KH2PO4 (0.5 M) was utilized to make buffered solutions at pH 5 or 8, respectively. […] All seven solutions were stored in sealed bottles at 45° C.
All eight solutions were stored in sealed bottles at 45° C.

[7] = Oxygen Radical Absorption Capacity (ORAC)
[8] = tested on: cox-2 gene transcription in human colon cancer DLD-1 cells; settings: Mutoh et al. (2000), read-out: IC50, suppression of cox-2 gene transcription; cited from earlier work
[9] = tested on: prostaglandin endoperoxide synthase; settings: Kalkbrenner et al. (1992); cited from earlier work

For `CC(=O)Oc1ccccc1C(=O)O` [aspirin], the “times more potent against COX-1 than COX-2” value [1] is given as “more than 150 times”.

For `O=C(O)[C@H]1O[C@@H](Oc2cc3oc(-c4ccccc4)cc(=O)c3c(O)c2O)[C@H](O)[C@@H](O)[C@@H]1O` [Baicalin], the “IC50 for COX-2” value [2] was 0.28 μg/mL/unit and the “IC50 for COX-1” value ([3]; peroxidase activity, IC50 normalized to enzyme units) was 0.44 μg/mL/unit of enzyme.

With `CC(C)Cc1ccc(C(C)C(=O)O)cc1` (stereo not drawn) [Ibuprofen, ibuprofen] the inhibition at 3 µg/mL [4] was 20%.

For `Oc1cc(O)c2c(c1)OC(c1ccc(O)c(O)c1)C(O)C2` (stereo not drawn) [Catechin], the half life [5] is listed as 2 h, the “stability of catechin in solution, basic conditions or metal ions” value ([6]; basic conditions or metal ions such as Fe3+) is listed as “not under basic conditions or when exposed to metal ions” and the “stability of catechin in solution, neutral conditions” value ([6]; neutral conditions, 4° C. and 40° C.) is listed as “stable”. The “stability of catechin in solution, weakly basic” value ([6]; pH=7.5) was “decomposes”, the “selectivity against the COX-1 enzyme” value ([3]; catechin in the UP676 formulation, COX-1 over COX-2) was 2.3 fold and the “Oxygen Radical Absorption Capacity (ORAC)” value [7] was 20,000. The IC50 [8] was 415 µM and the IC50 [9] was 40 µM.
